The values below come from patent publication US20240132431A1, “METHOD FOR ALKYLATING ACIDIC FUNCTIONAL GROUP” (Chugai Seiyaku Kabushiki Kaisha, priority 2021, published 2024).

Where two headings read alike, the source gives them in different places.

In data set [1] the target is T1, human Bcl-2 protein (Homo sapiens, UniProt P10415).
T1 construct: purchased Novus Biologicals
The experiment in a line: Binding evaluation of compounds to Bcl-2 by surface plasmon resonance (SPR). The settings on record: Biacore T200, biotinylated human Bcl-2 immobilized on Sensor Chip SA, 15° C., compounds found by AS-MS evaluation of synthesized library. As for the experimental part:
In order to analyze the binding affinity of the compounds shown in [Table AK-O1] and synthesized in Example 8 to Bcl-2, the surface plasmon resonance method was used. Biacore T200 (GE Healthcare) was used as the apparatus, and HBS (10 mM HEPES-NaOH, 150 mM NaCl, pH 7.4) to which 1 mM DTT, 3 mM EDTA, 0.01% Tween 20, and 4% DMSO had been added was used as the running buffer. The human Bcl-2 protein (Novus Biologicals) was biotinylated using EZ-Link Sulfo-NHS-LC-LC-biotin (Thermofisher scientific) and immobilized on the surface of Sensor Chip SA (GE Healthcare). Thereafter, compound solutions of multiple concentrations and the running buffer (blank) were added to the Bcl-2 immobilized surface to obtain the binding response of the compounds. The measurement was carried out at 15° C.
For orientation: SPR reads the build-up and loss of mass on a sensor chip optically.

For data set [2], the target named is T2, Bcl-2 protein (Recombinant Human Bcl-2 Protein) (Homo sapiens, UniProt P10415).
T2 construct: purchased Novus NBP2-34889
T2 sequence (P10415 whole entry): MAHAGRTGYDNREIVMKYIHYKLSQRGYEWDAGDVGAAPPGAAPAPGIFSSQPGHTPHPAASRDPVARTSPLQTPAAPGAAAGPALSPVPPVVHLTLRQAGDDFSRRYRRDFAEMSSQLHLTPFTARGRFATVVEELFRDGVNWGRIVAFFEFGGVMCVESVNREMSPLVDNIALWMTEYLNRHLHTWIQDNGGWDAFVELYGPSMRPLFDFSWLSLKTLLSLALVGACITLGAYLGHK
The experiment in a line: Binding evaluation of mixture library compounds to Bcl-2 using AS-MS (affinity selection mass spectrometry). In short, it runs like this: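 Bcl-2 binding is scored from LC/MS signal retained with protein through gel-filtration spin columns, normalised to unfiltered and protein-free controls. Incubation: 20 μM protein, […] per compound, 1 h, 23° C.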

For data set [3] the following is noted: cited from earlier work; for Base/pKBH^+ (CH3CN): pKa of conjugate acid of the base in CH3CN; for Base/pKBH+ (CH3CN): transcribed from the Aldrich web site for phosphazene bases.
The mark [4] stands for this setting: first value in parentheses, (A−C)/B×100, 1200-compound mixture, Bcl-2 20 μM.
[5] abbreviates: second value in parentheses, (A−C)/B×100, 1200-compound mixture, Bcl-2 20 μM.
Setting [6] is: Table 3-5-3, from Aldrich web site and Chem. Eur. J. 2021, 27, 4216-4229.
Setting [7] is: Table 3-5-1, transcribed from Aldrich web site.
Where [8] appears, read: Table 3-5-2, transcribed from Aldrich web site.

T1 sequence (P10415 whole entry): as above

Regarding `CCOc1cncc(-c2ccc(CN3CCN(c4ccc(C(=O)NS(=O)(=O)c5ccc(NCCSc6ccccc6)c(C(F)(F)F)c5)nn4)CC3)cc2C)c1` [B2R074-01, 6-[4-[[4-(5-ethoxypyridin-3-yl)-3-methylphenyl]methyl]piperazin-1-yl]-N-[4-(2-phenylsulfanylethylamino)-3-(trifluoromethyl)phenyl]sulfonylpyridazine-3-carboxamide], in data set [1], the “Equilibrium dissociation constant KD” value was “Binding not observed”. In addition, the “ASMS ratio (%)” value is 22.4% in data set [2] (setting [4]), 22.4% in data set [2] (n = 1), 25.4% in data set [2] (n = 2) and 25.4% in data set [2] (setting [5]).

Take `CCOc1cccc(-c2ccc(CN3CCN(c4ccc(C(=O)N(C)CC56CC7CC(CC(C7)C5)C6)nn4)CC3)cc2C)c1` [B3A073-01, N-(1-adamantylmethyl)-6-[4-[[4-(3-ethoxyphenyl)-3-methylphenyl]methyl]piperazin-1-yl]-N-methylpyridazine-3-carboxamide]: the “Equilibrium dissociation constant KD” value in data set [1] is “Binding not observed”. Further, the “ASMS ratio (%) n = 1” value in data set [2] (AS-MS on the mixture of 1200 library compounds, ASMS Ratio(%)=(A−C)/B×100, replicate n = 1) was 31.3%. For the same molecule, the “ASMS ratio (%) n = 2” value in data set [2] (AS-MS on the mixture of 1200 library compounds, ASMS Ratio(%)=(A−C)/B×100, replicate n = 2) is reported as 28.6%. For the same molecule, the entries for the “ASMS ratio (%)” value in data set [2] (setting [4]) and in data set [2] (setting [5]) were 31.3% and 28.6%, respectively.

`CN(C)C(=NC(C)(C)C)N(C)C` [BTMG, 2-tert-butyl-1,1,3,3-tetramethylguanidine]: in data set [3] (setting [6]), the “Base/pKBH^+ (CH3CN)” value is “(23.6)”.

As to `CC(C)(C)N=P(N1CCCC1)(N1CCCC1)N1CCCC1` [BTPP, tert-Butylimino-tri(pyrrolidino)phosphorane], the “Base/pKBH^+ (CH3CN)” value in data set [3] (setting [7]), in data set [3] (setting [8]) and in data set [3] (setting [6]) was “(28.4)” each time.

For `CCN(C(C)C)C(C)C` [DIPEA, N,N-Diisopropylethylamine], in data set [3] (Example 3-5-3, Aldrich web site and Chem. Eur. J. 2021, 27, 4216-4229), the “pKBH+ value in CH3CN” value is recorded as 18.8. In data set [3] (setting [6]), the “Base/pKBH^+ (CH3CN)” value is given as “(18.8)”.

Consider `CN(C)P(=NC(C)(C)C)(N(C)C)N(C)C` [P1tBu, tert-Butylimino-tris(dimethylamino)phosphorane], for which the “Base/pKBH+ (CH3CN)” value in data set [3] (Table 2-2) is listed as 26.9; in data set [3] (Table 3-4) it was “P1tBu (26.9)”. The “Base/pKBH^+ (CH3CN)” value in data set [3] (setting [7]), in data set [3] (setting [8]) and in data set [3] (setting [6]) was “(26.9)” each time.

With `CCN=P(N=P(N(C)C)(N(C)C)N(C)C)(N(C)C)N(C)C` [P2Et, 1-Ethyl-2,2,4,4,4-pentakis(dimethylamino)-2λ^5,4λ^5-catenadi(phosphazene)], the “Base/pKBH+ (CH3CN)” value in data set [3] (Table 2-2) is recorded as 32.9; in data set [3] (Table 3-1) it was “(32.9)”. For the same molecule, the “Base/pKBH^+ (CH3CN)” value in data set [3] (Table 3-3, transcribed from Aldrich web site) is listed as “(32.9)”; in data set [3] (setting [6]), “(32.9)”.

Consider `CN(C)P(=NC(C)(C)C)(N=P(N(C)C)(N(C)C)N(C)C)N(C)C` [P2tBu, 1-tert-Butyl-2,2,4,4,4-pentakis(dimethylamino)-2λ^5,4λ^5-catenadi(phosphazene)], for which the “Base/pKBH+ (CH3CN)” value in data set [3] (Table 3-1) is “(33.5)”; in data set [3] (Table 3-4) it was “P2tBu (33.5)”.

As to `C1CN=C2NCCCN2C1` [TBD, 1,5,7-triazabicyclo[4.4.0]dec-5-ene], in data set [3] (setting [6]), the “Base/pKBH^+ (CH3CN)” value was “(26.0)”.
